# Experimental data from patent US9642870B2, “Composition for preventing or alleviating atopic dermatitis comprising immunosuppressant and transglutaminase 2 inhibitor” (Dongguk University Industry-Academic Cooperation Foundation, priority 2011, dated 2017).
# How the values were obtained:
# IgE = assay: Total serum IgE (ELISA); format: in vivo, mice; details: administered alone, compared with the control
# Method: Since the major symptoms of atopic dermatitis were associated with strong Th2 immune response, IgE was produced at an excessive amount. Therefore, either glucosamine or tacrolimus was administered alone to the atopy-induced mice, or glucosamine and tacrolimus were administered in combination to measure a level of IgE in the serum. After one week had elapsed after the final administration, sera were obtained from the mice, and a total level of IgE was measured using an ELISA kit (Yamasa, Tokyo, Japan).
# [1] = Minimum and maximum doses from experiments conducted at a cell level; format: cell-based; details: no difference in inhibition level
# IFN-g, IL-4, IL-5 = assay: Immunosuppressive effects of immunosuppressants administered alone (IFN-g, IL-4, IL-5 concentrations); format: cell-based; details: FIGS. 24 to 26
# Source text: Further, immunosuppressive effects according to the kinds of immunosuppressants were further confirmed through experiments conducted to determine a proper dosage concentration.
# [2] = in vivo
# [3] = system: severe atopic dermatitis patients; assay: Clinical test: objective SCORAD index in atopic dermatitis patients; details: FIG. 17
"blood glucosamine concentrations, animals versus humans [2]",SMILES,total level of IgE in the serum (IgE),dose required relative to cyclosporine [1],"immunosuppressive effect (changes in concentrations of IFN-g, IL-4, IL-5) (IFN-g, IL-4, IL-5)","change in SCORAD indexes ([3]; glucosamine administered alone, November 10 to November 24)","therapeutic effect (SCORAD indexes), summary ([3]; single versus combined administration)"
–,C=CC[C@@H]1/C=C(\C)C[C@H](C)C[C@H](OC)[C@H]2O[C@@](O)(C(=O)C(=O)N3CCCC[C@H]3C(=O)O[C@H](/C(C)=C/[C@@H]3CC[C@@H](O)[C@H](OC)C3)[C@H](C)[C@@H](O)CC1=O)[C@H](C)C[C@@H]2OC [tacrolimus],no clear difference,lower dose than cyclosporine by a factor of 10,suppressed an immune response,–,–
no significant difference,N[C@H]1C(O)O[C@H](CO)[C@@H](O)[C@@H]1O (stereo partly shown) [glucosamine],no clear difference,–,–,no change,poor therapeutic effect
